In US20070009961A1, “Identification of targeting component of herbal medicines from simplified HPLC spectrum using after flowing through immobilized receptor (AFTIR) method” (Academia Sinica, priority 2005, published 2007):
Read-outs that look alike come from different tables or passages of the source.

How the values were obtained:
[1] = biological target: T1, CD28-mulg (extracellular domain of human CD28 fused to murine IgG2a Fc), immobilized on CM5 chip (Homo sapiens, UniProt P10747); assay: Surface plasmon resonance (BIAcore) binding to chip immobilised CD28 / AFTIR
T1 construct: soluble fusion protein consisting of the extracellular (134 aa) domain of human CD28; purchased ID Labs Inc; host or cells: CHO transfectants
Excerpt: Receptors and proteins. Human CD28-mulg and CD80-mulg fusion proteins were purchased from ID Labs Inc. CD28-mulg is a soluble fusion protein consisting of the extracellular (134 aa) domain of human CD28 fused to murine IgG2a Fc (233 aa). CD80-mulg is a soluble fusion protein consisting of the extracellular (173 aa) domain of human CD80 fused to murine IgG2a Fc (232 aa). Both were purified from tissue culture supernatant of CHO transfectants by protein A and size exclusion chromatography. Anti-human CD28 antibody and anti-human CD3 antibody were purchased from BioLegend. In the experiments, the quantity of anti-CD28 and CD80 used is only around 2% the quantity of CD28 immobilized.
Surface plasmon resonance analysis. BIAcore 3000 (Biacore, Uppsala, Sweden) was employed for real-time biospecific interaction analysis. Binding analysis was performed at 25° C. with a flow rate of 10 μl/min. In general, proteins can be immobilized on the layer of carboxylated dextran in CM5 sensor chip (research grade; Biacore) by amine coupling. With each injection, samples were diluted in the running buffer HBS (10 mM HEPES, pH 7.4, 150 mM NaCl, 3.4 mM EDTA, 0.005% surfactant P20) to a final concentration of 15 to 30 μM. After each injection, flow-cell can be regenerated by flowing though the cell with the buffer containing 50 mM NaOH. Extracts were injected at different concentrations from 1.9 μM to 60 μM. The binding constant between immobilized receptor (imm-CD28) and ligand was determined using BIAevaluation 3.1 software (Biacore).
CD28-mulg, a soluble fusion protein consisting of the extracellular (134 aa) domain of human CD28 fused to murine IgG2a Fc (233 aa), was immobilized to dextran matrix on the sensor chip surface, via covalent coupling of primary amines (—NH2). In this report, the term CD28 will be used as shorthand for CD28-mulg. […]
The RU as shown in FIGS. 5b-5d is the actual RU subtracted by the “background RU”. […] Affinity binding constants (1/KD) can be obtained from KD, where KD is calculated from Scatchard plots. […]

[2] = system: CD28 dependent IL-2 expression in Jurkat cells; assay: Jurkat T-cell IL-2 secretion (ELISA), CD28-dependent stimulation (anti-CD3 plus anti-CD28); format: cell-based, human
Protocol: Stimulation of T-cell. Jurkat leukemic T cells were maintained in a humidified atmosphere of 5% CO2/95% air at 37° C. in RPMI-1640 medium (HyClone, Utah, USA) including penicillin, streptomycin and 10% heat-inactivated FBS. Two modes of activations were used for the present experiments: anti-CD3 plus anti-CD28 (CD28-dependent stimulation) and PMA plus ionomycin (CD28-independent stimulation). For experiment of CD28-dependant stimulation, flat-bottom 96-well plates were coated with 10 μg/ml of anti-CD3 for 24 h at 4° C. Wells anti-CD3 were washed twice with PBS. After washing, the unbounded anti-CD3 was removed. Jurkat T-cells (200 μl 2×10^6 cells/ml) with soluble anti-CD28 (1 μg/ml) were then added into the wells. The cells were activated by anti-CD3 already existing in the wells. Upon the activation, the cell solution was stayed for 24 h. The supernatant (100 μl) of cell solution was then used for the measurement of IL-2 by enzyme-linked immuno-sorbent assay (ELISA). For experiment of CD28-indepentant stimulation, 200 μl Jurkat cell (5×10^5 cell/ml) were incubated with PMA (50 nM)/lonomycin (1 μg/ml) for 24 h. 100 μl supernatant was then used for IL-2 measurement by ELISA. […] The culture supernatants in both modes were harvested after 24h incubation and then used for the measurements of IL-2. IL-2 measurement was done using the commercial available ELISA kit (Biosource; California, US). The details how to measure the concentration of IL-2 after T-cell is activated is shown below. IL-2 ELISA assay. IL-2 concentration of T-cell was determined by following the instruction from manufacturer (Biosource; California, US). A 96-well flat-bottom plate was coated with anti-IL-2 mAb (100 μl at 4 μg/ml) in phosphate-buffered saline (PBS; pH 7.3) at room temperature overnight. The plate was then washed with PBS containing 0.05% Tween 20 (PBS-T) three times. Subsequently, the plate was incubated with a blocking solution containing 1% bovine serum albumin in PBS for more than 1 hr. After washing by PBS-T, 100 μl supernatant mixed with biotinylated anti-IL-2 detection antibodies (50 μl at 12.5 ng/ml) was added into each well and stay for 2 hr. After washing, 100 μl streptavidin horseradish peroxidase (1/2000 dilution of a 1.25 mg/ml solution) was added and the solution was incubated for 30 min at room temperature. After washing, 100 μl substrate solution containing 1/1 mixture of H2O2 and tetramethylbenzidine was added and the solution was incubated for 25min at room temperature. The solution reaction involving the stimulated sample was ceased by the addition of 100 μl stop solution (1M H2SO4). Concentration of IL-2 was then measured with microplate reader. The amount of IL-2 was indicated by the relative percentage ([…] of IL-2 is defined as 100%). […]

[3] = system: CD28-independent IL-2 response of Jurkat cells; assay: Jurkat T-cell IL-2 secretion (ELISA), CD28-independent stimulation (PMA plus ionomycin); format: cell-based, human
Protocol: Stimulation of T-cell. Jurkat leukemic T cells were maintained in a humidified atmosphere of 5% CO2/95% air at 37° C. in RPMI-1640 medium (HyClone, Utah, USA) including penicillin, streptomycin and 10% heat-inactivated FBS. Two modes of activations were used for the present experiments: anti-CD3 plus anti-CD28 (CD28-dependent stimulation) and PMA plus ionomycin (CD28-independent stimulation). For experiment of CD28-dependant stimulation, flat-bottom 96-well plates were coated with 10 μg/ml of anti-CD3 for 24 h at 4° C. Wells anti-CD3 were washed twice with PBS. After washing, the unbounded anti-CD3 was removed. Jurkat T-cells (200 μl 2×10^6 cells/ml) with soluble anti-CD28 (1 μg/ml) were then added into the wells. The cells were activated by anti-CD3 already existing in the wells. Upon the activation, the cell solution was stayed for 24 h. The supernatant (100 μl) of cell solution was then used for the measurement of IL-2 by enzyme-linked immuno-sorbent assay (ELISA). For experiment of CD28-indepentant stimulation, 200 μl Jurkat cell (5×10^5 cell/ml) were incubated with PMA (50 nM)/lonomycin (1 μg/ml) for 24 h. 100 μl supernatant was then used for IL-2 measurement by ELISA. […] IL-2 concentration of T-cell was determined by following the instruction from manufacturer (Biosource; California, US). […] Concentration of IL-2 was then measured with microplate reader. […]

[4] = biological target: T2, CD28-mulg, soluble fusion protein consisting of the extracellular (134 aa) domain of human CD28 fused to … (human; murine, UniProt P10747 19-152); assay: SPR, CD28-mulg on CM5 chip
T2 construct: extracellular domain; Bought from ID Labs Inc; purified from CHO transfectant supernatant; Coupled by primary amines to a CM5 sensor chip in all assays; also called imm-CD28; immobilized CD28; not shown: murine IgG2a Fc (233 aa)

Molecule: O=C(/C=C/c1ccc(O)c(O)c1)O[C@@H]1C[C@](O)(C(=O)O)C[C@@H](O)[C@H]1O [C1, chlorogenic acid (5-O-caffeoylquinic acid)]
- ability to bind CD28 (peak in HPLC profile after AFTIR) ([1]; bound CEE washed off the chip and profiled with HPLC): can bind CD28
- effect on IL-2 response (in words) [2]: linearly reduces IL-2 response
- effect on IL-2 response (in words) ([2]; listed as Chlorogenic acid): downregulates CD28 dependent interleukin-2 (IL-2) expression
- effect on IL-2 response (in words) ([2]; listed as chlorogenic acid): downregulating CD28 dependent IL-2 expression
- downregulation of IL-2 secretion response ([2]; normalized to 100%): −53%
- effect on IL-2 response (in words) [3]: unable to modulate

Molecule: CD80: soluble fusion protein: extracellular (173 aa) domain of human CD80 fused to murine IgG2a Fc
- binding efficiency [1]: > 90%
- binding capacity ΔR on immobilised CD28 ([1]; SPR, 10 μg/ml ligand): ~120 RU

B1: CD80-mulg, soluble fusion protein consisting of the extracellular (173 aa) domain of human CD80 fused to murine IgG2a Fc (232 aa) (Fc fusion, UniProt P33681 35-242, looked up)
chain: VIHVTKEVKEVATLSCGHNVSVEELAQTRIYWQKEKKMVLTMMSGDMNIWPEYKNRTIFDITNNLSIVILALRPSDEGTYECVVLKYEKDAFKREHLAEVTLSVKADFPTPSISDFEIPTSNIRRIICSTSGGFPEPHLSWLENGEELNAINTTVSQDPETELYAVSSKLDFNMTTNHSFMCLIKYGHLRVNQTFNWNTTKQEHFPDN
notes: extracellular domain; Bought from ID Labs Inc; purified from CHO transfectant supernatant; Used as the soluble analyte in SPR; also called Human CD80-mulg; not shown: murine IgG2a Fc (232 aa)
- ratio of binding receptor:ligand (mole:mole) [4]: ~0.92 mole CD80 per mole imm-CD28
